For test [1], the system named is CBD1 peptide and CBD1- and CBM-based peptides. Also on record: species or system BALB/c mice. Particulars: mouse, in vivo; for ELISA titer against C17K / IgG2/IgG1 ratio / ELISA against the Immunogen (OD) / ELISA C17K / ELISA K23M / ELISA K24W / ELISA K27M / ELISA K27W / ELISA K27W(G) / ELISA K30W(G) / ELISA p6362: sc. As to ELISA C17K: test concentration or dose not given here. As to ELISA K24W: test concentration or dose not given here. As to ELISA K27W(G): test concentration or dose not given here. As to ELISA K27W: test concentration or dose not given here. As to ELISA K30W(G): test concentration or dose not given here. As to ELISA against the Immunogen (OD): test concentration or dose not given here. As to ELISA p6362: test concentration or dose not given here.
For test [2], the system named is HIV-1 BZ 167. It is filed as cell-based.
In test [3] the test system is HIV-1 BZ 167. It is filed as cell-based. Conditions: for Inhibition of HIV-infection: 50-fold dilution of guinea pig immune sera (bleeds S5), HIV-1 BZ 167, p24 at 5 days post infection.
Test [4] concerns the target CBD1, C13K, CBD1/A and C10M peptides and the CBD1-KLH Construct (Human immunodeficiency virus type 1 group M subtype B, UniProt P04578, E630Q/H625N/T626M). Conditions: guinea pig, in vivo.
Test [5] relates to CBD1, C13K, CBD1/A and C10M peptides and the CBD1-KLH Construct. Conditions: guinea pig, in vivo.
Test [6] addresses CBD1, C13K, CBD1/A and C10M peptides and the CBD1-KLH Construct (Human immunodeficiency virus type 1 group M subtype B, UniProt P04578). Conditions: guinea pig, in vivo.
For test [7], the system named is IgG antibodies in human HIV-1 positive sera. The format is binding. Particulars: sera at 1000-fold dilution.

“And” between values parts separate entries of the source, which are not always exact repeats. Identical values can stand only once. “Also recorded” adds a separate entry of the source. Like-named read-outs stand apart in the source and are kept apart here.

Consider “AQYIKANSKFIGITELKKCSLEQIWNNMTWMQWDK (AQYIKANSKFIGITELKKCSLEQIWNNMTWMQWDK) [A35K]”, for which, in test [1], the “production of anti-CBD1 peptide antibodies, fold lower compared to the CBD1 peptide alone” value is “at least 3 fold”; the “ELISA titer against C17K” value is given as 0.61 ± 0.35; the IgG2/IgG1 ratio came to 1.56. In test [2], the “% inhibition of HIV-1 at 200-fold dilution” value was found to be 42%, the “Neutralizing activity ID50” value is on record as 150-fold and the “difference in the degree of neutralization of HIV-1 infection versus anti-CBD1 immune sera” value was “less than 2 fold”.

In the case of “AQYIKANSKFIGITELKKIWNNMTWMQWDK (AQYIKANSKFIGITELKKIWNNMTWMQWDK) [A30K]”, in test [1], the “ELISA titer against C17K” value is listed as 0.83 ± 0.44 and the IgG2/IgG1 ratio stood at 3.24. In test [2], the “% inhibition of HIV-1 at 200-fold dilution” value is on record as 45% and the “Neutralizing activity ID50” value is given as 150-fold.

“C-I-W-N-N-M-T-W-M-Q-W-D-K (CIWNNMTWMQWDK) [C13K]”: the “Inhibition of HIV-infection” value in test [3] is “No Effect”. In addition, the “ELISA titer against C17K” value in test [1] was 0.03 ± 0.02. Moreover, the “ELISA CBD1 (titer)” value in test [4] was below 200. Besides, in test [5], the “ELISA C13K (titer)” value was 400 and 200; the “ELISA CBD1/A (titer)” value is below 200; the “ELISA KLH (titer against the CBD1-KLH construct)” value (from here on “ELISA KLH”) was below 200. Besides, in test [6], the “ELISA C10M (titer)” value was below 200. Also, in test [2], the “% inhibition of HIV-1 at 200-fold dilution” value is on record as “None” and the “Neutralizing activity ID50” value is on record as “None”.

“C-S-L-E-Q-I-A-N-N-M-T-A-M-Q-A-D-K (CSLEQIANNMTAMQADK) [CBD1/A]”: in test [3], the “Inhibition of HIV-infection” value was “no apparent neutralizing activity; also recorded: No Effect”. The “Inhibition of HIV infection” value in test [3] (100 fold dilution of guinea pig immune serum (bleeds S5), HIV-1 BZ 162, human CD4+ T lymphocytes) was “did not inhibit”. Also, the “ELISA CBD1 (titer)” value in test [4] was 20,000 and 16,000. In test [5], the “ELISA C13K (titer)” value was 2,000 and 1,000; the “ELISA CBD1/A (titer)” value is given as 128,000; the “ELISA KLH” value was below 200. The “ELISA C10M (titer)” value in test [6] is given as 16,000.

Consider C-S-L-E-Q-I-W-N-N-M (CSLEQIWNNM) [C10M], for which the “ELISA against the Immunogen (OD)” value in test [1] is given as below 0.10 OD. In test [2], the “% Inhibition of HIV-1 infection at 200-fold dilution” value was “No Effect” and the “Neutralizing activity ID50 Fold-Dilution” value is reported as “No Effect”.

On to CKSLEQIWNNMTWMQWDK [C18K], for which, in test [1], the “ELISA titer against C17K” value is 1.75 ± 0.60. In test [2], the “% inhibition of HIV-1 at 200-fold dilution” value stood at 65% and the “Neutralizing activity ID50” value is on record as 250-fold.

Consider “KQIINMWQVVGKAMYAKKCKSLEQIWNNMTWMQWDK (KQIINMWQVVGKAMYAKKCKSLEQIWNNMTWMQWDK)”, for which, in test [1], the “ELISA titer against C17K” value came to 1.07 ± 0.33. In test [2], the “% inhibition of HIV-1 at 200-fold dilution” value is 45% and the “Neutralizing activity ID50” value is 150-fold.

Regarding “KRWIILGLNKIVRMYGPGPGIWNNMTW [K27W(G)]”, in test [1], the “ELISA C17K” value is given as below 0.20, the “ELISA K23M” value is below 0.20, the “ELISA K24W” value is listed as below 0.20 and the “ELISA K27M” value is given as below 0.20. For the same substance, in test [1], the “ELISA K27W” value was below 0.20, the “ELISA K27W(G)” value is recorded as 0.66 ± 0.22, the “ELISA K30W(G)” value was below 0.20 and the “ELISA against the Immunogen (OD)” value worked out at 0.73 OD. Also, in test [1], the “ELISA p6362” value is below 0.20. In test [2], the “% Inhibition of HIV-1 infection at 200-fold dilution” value is given as 16% and the “Neutralizing activity ID50 Fold-Dilution” value is 100-fold.

With “KRWIILGLNKIVRMYGPGPGIWNNMTWMQW [K30W(G)]”, in test [1], the “ELISA C17K” value is reported as below 0.20, the “ELISA K23M” value was below 0.20, the “ELISA K24W” value is below 0.20 and the “ELISA K27M” value is below 0.20. Further, in test [1], the “ELISA K27W” value is recorded as below 0.20, the “ELISA K27W(G)” value was below 0.20, the “ELISA K30W(G)” value is reported as 1.23 ± 0.55 and the “ELISA against the Immunogen (OD)” value amounted to 1.45 OD. Besides, in test [1], the “ELISA p6362” value is below 0.20. In addition, in test [2], the “% Inhibition of HIV-1 infection at 200-fold dilution” value is given as 81% and the “Neutralizing activity ID50 Fold-Dilution” value is on record as 450-fold.

Take “KRWIILGLNKIVRMYKKCKSLEQIWNNMTWMQWDK”: the “ELISA titer against C17K” value in test [1] came to 1.72 ± 0.46. In test [2], the “% inhibition of HIV-1 at 200-fold dilution” value turned out to be 51% and the “Neutralizing activity ID50” value is on record as 200-fold.

Regarding “KRWIILGLNKIVRMYKKCSLEQIWNNM [K27M]”, the “ELISA against the Immunogen (OD)” value in test [1] worked out at 1.38 OD. For the same substance, in test [2], the “% Inhibition of HIV-1 infection at 200-fold dilution” value was found to be 65% and the “Neutralizing activity ID50 Fold-Dilution” value is 250-fold.

On to “KRWIILGLNKIVRMYKKIWDNMTWMEW [K27W-2]”, for which, in test [1], the “ELISA C17K” value is below 0.20, the “ELISA K23M” value was below 0.02, the “ELISA K24W” value is reported as below 0.02 and the “ELISA K27M” value is below 0.20. Further, in test [1], the “ELISA K27W” value came to 0.22 ± 0.08, the “ELISA K27W(G)” value was 2.01 ± 0.73, the “ELISA K30W(G)” value is listed as below 0.20 and the “ELISA against the Immunogen (OD)” value was 2.01 OD. Moreover, the “ELISA p6362” value in test [1] is below 0.20. In addition, in test [2], the “% Inhibition of HIV-1 infection at 200-fold dilution” value is on record as below 10% and the “Neutralizing activity ID50 Fold-Dilution” value is 100-fold.

Regarding “KRWIILGLNKIVRMYKKIWNNM [K23M]”, in test [1], the “immunized mice that developed peptide specific antibodies” value is 1 out of the five and ^aOnly 1 out of five mice immunized with the K23M peptide developed anti-K23M specific antibodies; the “ELISA C17K” value is below 0.20; the “ELISA K23M” value is 0.53; the “ELISA K24W” value is on record as below 0.20. Moreover, in test [1], the “ELISA K27M” value is below 0.20, the “ELISA K27W” value is on record as below 0.20, the “ELISA K27W(G)” value is below 0.20 and the “ELISA K30W(G)” value is below 0.20. In test [1], the “ELISA against the Immunogen (OD)” value is 0.66 OD and the “ELISA p6362” value is below 0.20. In test [2], the “% Inhibition of HIV-1 infection at 200-fold dilution” value came out at 11% and the “Neutralizing activity ID50 Fold-Dilution” value is given as 100-fold.

For “KRWIILGLNKIVRMYKKIWNNMTW [K24W]”, in test [1], the “ELISA C17K” value was below 0.20, the “ELISA K23M” value is 0.45 ± 0.40, the “ELISA K24W” value was determined as 1.41 ± 0.55 and the “ELISA K27M” value worked out at 0.87 ± 0.15. In test [1], the “ELISA K27W” value was determined as 0.21 ± 0.15, the “ELISA K27W(G)” value stood at 1.88 ± 0.66, the “ELISA K30W(G)” value is below 0.20 and the “ELISA against the Immunogen (OD)” value is reported as 1.55 OD. Moreover, in test [1], the “ELISA p6362” value is below 0.20. Also, in test [2], the “% Inhibition of HIV-1 infection at 200-fold dilution” value amounted to 88% and the “Neutralizing activity ID50 Fold-Dilution” value was 450-fold.

With “KRWIILGLNKIVRMYKKIWNNMTWMQW [K27W]”, in test [1], the “ELISA C17K” value is recorded as 0.24 ± 0.12, the “ELISA K23M” value is given as below 0.20, the “ELISA K24W” value is reported as below 0.20 and the “ELISA K27M” value is on record as below 0.20. Moreover, in test [1], the “ELISA K27W” value amounted to 1.49 ± 0.75, the “ELISA K27W(G)” value was below 0.20, the “ELISA K30W(G)” value was 2.25 ± 0.20 and the “ELISA against the Immunogen (OD)” value amounted to 1.64 OD. Besides, in test [1], the “ELISA p6362” value was below 0.20. Moreover, in test [2], the “% Inhibition of HIV-1 infection at 200-fold dilution” value is listed as 65% and the “Neutralizing activity ID50 Fold-Dilution” value is 300-fold.

For the substance “KRWIILGLNKIVRMYKKIWNNMTWMQWDK [K29K]”, in test [1], the “ELISA titer against C17K” value is 1.80 ± 0.62 and the IgG2/IgG1 ratio was found to be 4.95. For the same substance, in test [2], the “% inhibition of HIV-1 at 200-fold dilution” value amounted to 62% and the “Neutralizing activity ID50” value is on record as 250-fold.

Regarding KLH-CSLEQIWNNMTWMQWDK [KLH-C17K], the “Inhibition of HIV-infection” value in test [3] is “No Effect”. In addition, in test [4], the “ELISA CBD1 (titer)” value is on record as below 200. In addition, in test [5], the “ELISA C13K (titer)” value is reported as below 200, the “ELISA CBD1/A (titer)” value is recorded as below 200 and the “ELISA KLH” value was below 200. The “ELISA C10M (titer)” value in test [6] was below 200.

As for “RGDAQYIKANSKFIGITELKKIWNNMTWMQWDK (RGDAQYIKANSKFIGITELKKIWNNMTWMQWDK) [R33K]”, in test [1], the “ELISA titer against C17K” value was determined as 1.66 ± 0.37 and the IgG2/IgG1 ratio was 4.05. Further, in test [2], the “% inhibition of HIV-1 at 200-fold dilution” value is recorded as 64% and the “Neutralizing activity ID50” value is on record as 200-fold.

For the substance SLEQIWNNMTWMQWDK [CBD1 peptide 618-633], the “HIV-1 positive sera reacting in ELISA / sera tested” value in test [7] (Brazil, n = 22) is given as 1/22; in test [7] (Chili, n = 24) it was 1/24; in test [7] (France, n = 81), 4/81. In addition, the “mean OD 450 nm ± S.D. of reacting sera” value in test [7] (Brazil, n = 22) is 0.75 OD; in test [7] (Chili, n = 24), 0.30 OD; in test [7] (France, n = 81), 0.33 ± 0.05 OD.

The values are drawn from patent US8790898B2 (priority 2008, dated 2014).
